The values below come from US20100280019A1, “ISOXAZOLES” (priority 2009, published 2010).

For this assay, the target named is T1, GABA A α5 (human receptors of composition α5β3γ2) (Homo sapiens, UniProt P18507+P31644).
T1 construct: expressed in transfected cells; host or cells: HEK293, transiently transfected; membranes prepared from cell pellets
Nature of the assay: [3H]flumazenil competition binding, HEK293 cells expressing human GABA A α5β3γ2 receptors. The following applies: [3H]-Flumazenil 0.5 nM, means of two determinations, read-out: hKi (GABA Aα5). The protocol: The affinity of compounds at GABA A receptor subtypes was measured by competition for [^3H]flumazenil (85 Ci/mmol; Roche) binding to HEK293 cells expressing rat (stably transfected) or human (transiently transfected) receptors of composition α1β3γ2, α2β3γ2, α3β3γ2 and α5β3γ2.
Cell pellets were suspended in Krebs-tris buffer (4.8 mM KCl, 1.2 mM CaCl2, 1.2 mM MgCl2, 120 mM NaCl, 15 mM Tris; pH 7.5; binding assay buffer), homogenized by polytron for ca. 20 sec on ice and centrifuged for 60 min at 4° C. (50000 g; Sorvall, rotor: SM24=20000 rpm). The cell pellets were resuspended in Krebs-tris buffer and homogenized by polytron for ca. 15 sec on ice. Protein was measured (Bradford method, Bio-Rad) and aliquots of 1 mL were prepared and stored at −80° C.
Radioligand binding assays were carried out in a volume of […] (96-well plates) which contained […] of cell membranes, [^3H]-Flumazenil at a concentration of 1 nM for α1, α2, α3 subunits and 0.5 nM for α5 subunits and the test compound in the range of […]. Nonspecific binding was defined by 10^−5 M diazepam and typically represented less than 5% of the total binding. Assays were incubated to equilibrium for 1 hour at 4° C. and harvested onto GF/C uni-filters (Packard) by filtration using a Packard harvester and washing with ice-cold wash buffer (50 mM Tris; pH 7.5). After drying, filter-retained radioactivity was detected by liquid scintillation counting. Ki values were calculated using Excel-Fit (Microsoft) and are the means of two determinations.
Representative test results, obtained by the above described assay measuring binding affinity to HEK293 cells expressing human (h) receptors, are shown in table 1 below.

For the compound `Cc1onc(-c2ccccc2)c1COc1ccc(C(=O)NN)cn1` [Example 1, 6-((5-Methyl-3-phenyl-isoxazol-4-yl)-methoxy)-nicotinic acid hydrazide], the Ki was 5.4 nM. The result for `Cc1onc(-c2ccccc2)c1COc1ccc(C(=O)NN2CCOCC2)cn1` [Example 2, 6-((5-Methyl-3-phenyl-isoxazol-4-yl)-methoxy)-N-morpholin-4-yl-nicotinamide] reads 0.6 nM; that for `Cc1onc(-c2ccccc2)c1COc1ccc(C(=O)NN2CCCCC2)cn1` [Example 3, 6-((5-Methyl-3-phenyl-isoxazol-4-yl)-methoxy)-N-piperidin-1-yl-nicotinamide], 4 nM. Turning to `Cc1onc(-c2ccccc2)c1COc1ccc(C(=O)NN2CCCC2)cn1` [Example 4, 6-((5-Methyl-3-phenyl-isoxazol-4-yl)-methoxy)-N-pyrrolidin-1-yl-nicotinamide], the Ki was determined as 2.6 nM. Turning to `Cc1onc(-c2ccccc2)c1COc1ccc(C(=O)NN2CCS(=O)(=O)CC2)cn1` [Example 5, N-(1,1-Dioxo-1,6-thiomorpholin-4-yl)-6-((5-methyl-3-phenyl-isoxazol-4-yl)-methoxy)-nicotinamide], the Ki came to 2.6 nM. Take `Cc1onc(-c2ccccc2)c1COc1ccc(C(=O)NNS(C)(=O)=O)cn1` [Example 6, 6-((5-Methyl-3-phenyl-isoxazol-4-yl)-methoxy)-nicotinic acid N′-(methylsulfonyl)-hydrazide]: the Ki turned out to be 4.8 nM. The result for `Cc1onc(-c2ccc(F)cn2)c1COc1ccc(C(=O)NN2CCOCC2)cn1` [Example 7, 6-[(3-(5-Fluoro-pyridin-2-yl)-5-methyl-isoxazol-4-yl)-methoxy]-N-morpholin-4-yl-nicotinamide] reads 0.4 nM.

Regarding `CCCCc1noc(C)c1COc1ccc(C(=O)NN2CCOCC2)cn1` [Example 8, 6-((3-Butyl-5-methyl-isoxazol-4-yl)-methoxy)-N-morpholin-4-yl-nicotinamide], the Ki is 6.4 nM. As for `CCCCc1noc(C)c1COc1ccc(C(=O)NN2CCCC2)cn1` [Example 9, 6-((3-Butyl-5-methyl-isoxazol-4-yl)-methoxy)-N-pyrrolidin-1-yl-nicotinamide], the Ki came out at 19.4 nM. For `CCCCc1noc(C)c1COc1ccc(C(=O)NN(C)C)cn1` [Example 10, 6-((3-Butyl-5-methyl-isoxazol-4-yl)-methoxy)-nicotinic acid 2,2-dimethyl-hydrazide], the Ki came out at 18.7 nM. The value for `Cc1onc(-c2ccccc2)c1COc1ccc(C(=O)NN2CCOCC2)nn1` [Example 11, 6-((5-Methyl-3-phenyl-isoxazol-4-yl)-methoxy)-pyridazine-3-carboxylic acid morpholin-4-ylamide] was 9.5 nM.
